Measured values: article PMC4492822 (EMBO Molecular Medicine, 2015)

Columns and labels:
[1] = system: Twist1/Kras^G12D lung tumors; test: Twist1/KrasG12D autochthonous lung tumor model, hypofractionated radiation (SABR); format: in vivo, mouse
Method: Inducible Twist1/Kras^G12D transgenic mice in the FVB/N inbred background were of the genotype: CCSP-rtTA/tetO-KrasG12D/Twist1-tetO-luc (Tran et al, [2012]). All the mice were weaned 3–4 weeks of age and then placed on dox at 4–6 weeks of age. Mice were treated with similar levels of tumor burden per micro-CT and were typically 20–30 weeks old. Mice were treated as in Fig6C and H. Each group consisted of mice, of which multiple index tumors were followed in time by micro-CT and quantified by a board-certified radiation oncologist (JZ) in a blinded fashion. Bi-dimensional measurements were made on tumors using serial examinations and tumor volumes calculated using the equation Volume = π/6 × 1.65 (length × width) × 3/2. Volumes were normalized to the starting volume, t = 0 before treatment. For 15-Gy SABR experiments, the breakdown of animal usage is (1) RT = 3 female mice, (2) RK-33 = 3 females and 1 male mice, (3) carboplatin = 3 male mice, (4) RT + carboplatin = 3 female mice, and (5) RT + RK-33 = 5 female mice. For the 3-Gy XRT experiments, animals used were (1) RT = 3 female and three male mice and (2) RT + RK-33 = four female and three male mice.
Cells were irradiated at room temperature with 0.5 Gy/min to the desired dose using a Gammacell 40 ^137Cs irradiator. For in vivo experiments, mice were treated using the Small Animal Radiation Research Platform (Wong et al, [2008]). The tumors were irradiated with a circular beam of 1 cm diameter.
The mice underwent micro-CT imaging by use of the Small Animal Radiation Research Platform (SARRP) irradiator described earlier (Wong et al, [2008]). The uncollimated primary beam was used for imaging. A total of 1,800 projections were acquired at approximately 0.2 angular increments. The Feldkamp CBCT algorithm was used for reconstruction. Tumor volumes were quantified from the CT dataset with Pinnacle3 software v.8.1y (Philips Inc, Madison, WI) as described previously (Tran et al, [2011]; Zeng et al, [2013]). Briefly, we viewed 2D images in sagittal, coronal, and transverse views to detect tumors and track them over time. […]

[2] = target: Ded1p (yeast homolog of DDX3) (Saccharomyces cerevisiae, UniProt P06634); test: RNA helicase (unwinding) assay; format: biochemical; conditions: Ded1p 80 nM, 100 μM ATP; 50, 100, 200 nM tested
Method: The RNA helicase assay was performed as described earlier (Sengoku et al, [2006]) with a few modifications. Briefly, RNA oligomers R41 (unlabeled 41 nt) 5′-[…]-[…]-3′ and R13 (FAM-labeled 13 nt) 5′-[…]-3′ were annealed to form […] RNA duplexes and incubated with R13C (unlabeled 13-nt quencher RNA complementary to R13) 5′-[…]-3′, along with Ded1p protein (80 nM), 100 μM ATP, and […] RNasin (Promega, Madison, WI, USA) in reaction buffer containing 50 mM Tris, pH 7.8, 2 mM MgCl2, 3% glycerol, and 1 mM DTT for various times at room temperature. Reactions were stopped after 30-min incubation at room temperature with stop solution containing proteinase K (1 mg/ml) and SDS (0.6%). Reactions were loaded on acrylamide gels and bands visualized using a Typhoon scanner (GE Healthcare, Piscataway, NJ, USA).

A549 cells [3] = test: Immunoblotting of cell cycle, apoptosis, MAPK and DNA repair proteins; format: cell-based, human
Method: (§1) Cell lysate was prepared with TB buffer method. For immunoblotting, ~25 μg protein was loaded on 10% SDS–PAGE gels. […] The blots were developed with clarity Western ECL (Bio-Rad, Hercules, CA, USA) and imaged with G:BOX Chemi XR5 (Syngene, Frederick, MD, USA).

DDX3 = DDX3 (Homo sapiens, UniProt O00571); test: Biotin bead pull-down assay with biotinylated RK-33 (AK-298, SK-153), immunoblot; format: binding; conditions: biotinylated RK-33 molecules, 10 μM
Method: Mean from 3 replicates with SD. • J, K Colony-forming assay of A549 and H3255 cells treated with RK-33 and with various doses of radiation 4 h later. Curves were fitted with a quadratic polynomial equation. Mean from 2 replicates with SD. P-values were determined by the extra sum of squares F-test. Source data are available online for this figure.
Two plates of 70% confluent cells were lysed with IP lysis buffer (Tris–HCl (pH 7.4) 25 mM, NaCl 150 mM, EDTA 1 mM, NP-40 1%, glycerol 5%, protease inhibitor). […] Streptavidin beads were added and incubated for 1 h at room temperature. The biotin-bead–RK-33 complex was extracted with a magnetic stand and washed seven times with PBS. Proteins were analyzed by immunoblot.

H1299 cells = test: Immunoblotting of cell cycle, apoptosis, MAPK and DNA repair proteins; format: cell-based
Method: as §1

[4] = system: TCF4 activity in H1299 cells; test: TCF reporter assay (TOP/FOP-FLASH); format: cell-based; conditions: 0, 1, 2, and 3 μM; wild-type and β-catenin-overexpressing cells
Method: Transcriptional activity of TCF4 was assayed using the dual luciferase assay (Promega, Madison, WI, USA) according to the manufacturer's instructions. Briefly, 1.5 × 10^4 A549 or H1299 cells were transfected with 500 ng of TOP-FLASH and control FOP-FLASH constructs along with 50 ng of phRL Renilla constructs as transfection controls as well as with 500 ng β-catenin constructs when indicated. Cells were cultured for 24 h and then lysed in passive lysis buffer. Luminescence was detected using a luminometer (Berthold Sirius, Oak Ridge, TN, USA). Relative TCF4 promoter activity was calculated by dividing firefly luminescence by Renilla luminescence, and then normalized TOP-FLASH was divided by normalized FOP-FLASH, which was finally normalized to vector or DMSO control cells. All experiments were repeated three times, and differences were assessed by the paired t-test.

A549 cells [5] = test: Cell cycle analysis by flow cytometry; format: cell-based, human; conditions: 0, 2, 4, and 6 μM, dose-dependent
Method: A549 and H1299 cells were plated at 1 × 10^5 cells per well of a 6-well plate. Cell cycle was carried out as previously described (Vesuna et al, [2012]). Briefly, cells were trypsinized 24 h after plating and fixed in 70% ethanol overnight at −20°C. Fixed cells were washed with PBS and resuspended in DNA-staining solution (5 μg/ml propidium iodide, 0.5 mg/ml RNase A) for 1 h at room temperature. Cell cycle acquisition was performed on a FACScan I or FACSCalibur instrument (BD Biosciences, San Jose, CA, USA). Independent experiments were repeated three times. Data were analyzed using FlowJo software (Tree Star Inc., Ashland, OR, USA).

[6] = 10 μM, especially evident 2 h after treatment

Ded1p (yeast homolog of DDX3), sequence (P06634 whole entry): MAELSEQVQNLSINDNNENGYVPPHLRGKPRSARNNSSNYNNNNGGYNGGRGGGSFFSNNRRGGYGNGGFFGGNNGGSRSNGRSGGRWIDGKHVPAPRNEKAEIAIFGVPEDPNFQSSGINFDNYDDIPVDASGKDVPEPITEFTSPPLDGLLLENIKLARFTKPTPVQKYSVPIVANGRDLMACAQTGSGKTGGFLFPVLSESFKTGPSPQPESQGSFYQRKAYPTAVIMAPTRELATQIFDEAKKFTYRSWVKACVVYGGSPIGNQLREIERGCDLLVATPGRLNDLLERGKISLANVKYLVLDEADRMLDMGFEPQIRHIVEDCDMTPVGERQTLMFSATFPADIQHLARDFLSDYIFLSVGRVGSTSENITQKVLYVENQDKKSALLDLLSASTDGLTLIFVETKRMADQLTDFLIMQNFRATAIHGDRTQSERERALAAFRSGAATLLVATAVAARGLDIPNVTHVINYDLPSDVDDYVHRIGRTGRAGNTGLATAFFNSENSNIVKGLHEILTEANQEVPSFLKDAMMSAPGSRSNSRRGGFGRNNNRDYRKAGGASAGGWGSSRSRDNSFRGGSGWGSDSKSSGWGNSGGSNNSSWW
DDX3, sequence (O00571 2-582): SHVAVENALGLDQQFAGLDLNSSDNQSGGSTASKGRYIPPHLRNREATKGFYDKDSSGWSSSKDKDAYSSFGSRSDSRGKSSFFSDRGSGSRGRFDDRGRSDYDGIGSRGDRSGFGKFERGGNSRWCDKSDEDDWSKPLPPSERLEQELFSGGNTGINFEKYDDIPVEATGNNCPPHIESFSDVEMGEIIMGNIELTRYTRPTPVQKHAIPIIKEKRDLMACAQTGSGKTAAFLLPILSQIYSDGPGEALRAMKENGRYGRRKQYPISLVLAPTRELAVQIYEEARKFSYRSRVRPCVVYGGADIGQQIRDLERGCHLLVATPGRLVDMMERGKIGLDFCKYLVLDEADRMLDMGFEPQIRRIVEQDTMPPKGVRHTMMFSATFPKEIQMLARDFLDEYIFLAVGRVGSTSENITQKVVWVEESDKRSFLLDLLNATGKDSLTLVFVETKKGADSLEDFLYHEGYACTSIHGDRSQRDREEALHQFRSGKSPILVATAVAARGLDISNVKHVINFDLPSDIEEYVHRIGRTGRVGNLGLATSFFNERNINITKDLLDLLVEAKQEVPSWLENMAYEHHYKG

diimidazo[4,5-d:4′,5′-f]-[1,3]diazepine [RK-33]
Ki67 positive cells in lung tumors ([1]; RK-33 and radiation treatment): decrease in Ki67 positive cells
enhancement of the radiation effect (tumor volume by micro-CT) ([1]; i.p. RK-33 with 15-Gy SABR, 1 week after treatment): 3.7 fold
radiation sensitization relative to that caused by carboplatin ([1]; with SABR): 1.5 fold
concentration from which unwinding activity is reduced (dose-dependent) [2]: 50 nM
DNA repair proteins ATR and XRCC4 (A549 cells [3]; 6 μM for 4 h, then 5 Gy): decrease of ATR but not XRCC4
phosphorylated ERK2 and ERK1 (A549 cells [3]; 7.5 μM or 10 μM, 24 h): reduction of phosphorylated ERK2 and ERK1
caspase cleavage (A549 cells [3]; 10 μM): cleavage of caspases 7 and 9
cyclin D1 protein (A549 cells [3]; [6]): substantial reduction of cyclin D1
binding to DDX3 in pull-down (DDX3): binds specifically to DDX3
DNA repair proteins ATR and XRCC4 (H1299 cells; 6 μM for 4 h, then 5 Gy): decrease of ATR but not XRCC4
phosphorylated ERK2 and ERK1 (H1299 cells; 7.5 μM or 10 μM, 24 h): reduction of phosphorylated ERK2 and ERK1
cyclin D1 protein (H1299 cells; [6]): substantial reduction of cyclin D1
TCF activity [4]: reduced TCF activity significantly
cell cycle effect (A549 cells [5]): G1 arrest
